# Where two headings read alike, the source gives them in different places.
# Experiments:
# Assay type in all cases: cell-based
# [1] = system: LC-2/ad human lung adenocarcinoma, harboring the CCDC6-RET fusion protein; experiment: In vitro cell proliferation assay, LC-2/ad
# Experimental: (§1) In Vitro Cell Proliferation Assay
# (§2) To evaluate the antiproliferative activity of a compound of formula (I) the following human cell lines were used: A2780 ovarian carcinoma; TT medullary thyroid carcinoma, harboring a mutated RET-C634W receptor; LC-2/ad human lung adenocarcinoma, harboring the CCDC6-RET fusion protein. Exponentially growing cells were seeded and incubated at 37° C. in a humidified 5% CO2 atmosphere using appropriate medium supplemented with 10% Fetal Bovine Serum. 24 hours following cell plating, scalar doses of the compounds dissolved in 0.1% DMSO were added to the medium and cells were exposed to drugs for either 72 hours (A2780) or 144 hours (TT and LC-2/ad), according to their different proliferation rate. At the end of treatment, cell proliferation was determined by an intracellular ATP monitoring system (CellTiterGlo—Promega), following manufacturer's instructions, and using an Envision instrument (PerkinElmer) as reader. Data obtained from compound versus vehicle treated cells were compared using Assay Explorer (Symyx Technologies Inc) software. IC50 values were calculated using sigmoidal interpolation curve fitting. In the following Table A the antiproliferative activity of representative compounds of formula (I) on one medullary thyroid carcinoma cell line expressing the aforementioned mutated forms of RET (TT) and on one lung adenocarcinoma cell line harboring the aforementioned fusion form of RET (LC-2/ad) is reported. As control, the antiproliferative activity of the same compounds on an unrelated non RET-dependent cell line (A2780) is reported. All these compounds show remarkable activity on RET-driven cellular models with respect to the unrelated ones.
# [2] = system: A2780 ovarian carcinoma; experiment: In vitro cell proliferation assay, A2780 (non RET-dependent control); settings: Homo sapiens
# Experimental: as §1, §2
# [3] = system: TT medullary thyroid carcinoma, harboring a mutated RET-C634W receptor; experiment: In vitro cell proliferation assay, TT; settings: Homo sapiens
# Experimental: as §1, §2
# [4] = antiproliferative activity, 144 hours exposure, CellTiterGlo ATP readout, CCDC6-RET fusion, read-out: LC-2/ad IC50
# [5] = A2780, antiproliferative activity, 72 hours exposure, CellTiterGlo ATP readout, unrelated non RET-dependent cell line, read-out: A2780 IC50
# [6] = antiproliferative activity, 144 hours exposure, CellTiterGlo ATP readout, RET-C634W, read-out: TT IC50
# [7] = 144 h, read-out: LC-2/ad IC50 (μM)
# [8] = A2780, 72 h, read-out: A2780 IC50 (μM)
SMILES,"IC50 [1, 4]","IC50 [2, 5]","IC50 [3, 6]","IC50 [1, 7]","IC50 [2, 8]","IC50 ([3]; 144 h, read-out: TT IC50 (μM))"
"CC(C)NC(=O)c1cccc2cc(-c3cn(C(C)C)c4ncnc(N)c34)ccc12 [cmpd 5, 6-(4-Amino-7-isopropyl-7H-pyrrolo[2,3-d]pyrimidin-5-yl)-naphthalene-1-carboxylic acid isopropylamide]",–,–,–,0.082 µM,2.94 µM,0.086 µM
"CC(C)n1cc(-c2ccc3c(c2)CCN3C(=O)NC2CC2)c2c(N)ncnc21 [cmpd 16, 5-(4-Amino-7-isopropyl-7H-pyrrolo[2,3-d]pyrimidin-5-yl)-2,3-dihydro-indole-1-carboxylic acid cyclopropylamide]",–,–,–,0.084 µM,2.19 µM,0.077 µM
"CNC(=O)c1cccc2cc(-c3cn(C(C)C)c4ncnc(N)c34)ccc12 [cmpd 6, 6-(4-Amino-7-isopropyl-7H-pyrrolo[2,3-d]pyrimidin-5-yl)-naphthalene-1-carboxylic acid methylamide]",0.049 µM,0.348 µM,0.024 µM,–,–,–
"Nc1ncnc2c1c(-c1ccc3c(C(=O)NC4CC4)cccc3c1)cn2C1CCCC1 [cmpd 3, 6-(4-Amino-7-cyclopentyl-7H-pyrrolo[2,3-d]pyrimidin-5-yl)-naphthalene-1-carboxylic acid cyclopropylamide]",0.006 µM,0.385 µM,0.003 µM,–,–,–
"Nc1ncnc2c1c(-c1ccc3c(C(=O)NC4CC4)cccc3c1)cn2C1CCC1 [cmpd 12, 6-(4-Amino-7-cyclobutyl-7H-pyrrolo[2,3-d]pyrimidin-5-yl)-naphthalene-1-carboxylic acid cyclopropylamide]",0.051 µM,1.84 µM,0.042 µM,–,–,–
"CC(C)n1cc(-c2ccc3c(C(=O)Nc4ccc(CN5CCN(C)CC5)c(C(F)(F)F)c4)cccc3c2)c2c(N)ncnc21 [cmpd 10, 6-(4-Amino-7-isopropyl-7H-pyrrolo[2,3-d]pyrimidin-5-yl)-naphthalene-1-carboxylic acid [4-(4-methyl-piperazin-1-ylmethyl)-3-trifluoromethyl-phenyl]-amide]",0.008 µM,0.072 µM,0.002 µM,–,–,–
"CC(C)n1cc(-c2ccc3c(C(N)=O)cccc3c2)c2c(N)ncnc21 [cmpd 4, 6-(4-Amino-7-isopropyl-7H-pyrrolo[2,3-d]pyrimidin-5-yl)-naphthalene-1-carboxylic acid amide]",0.021 µM,2.42 µM,0.017 µM,–,–,–
"CC(C)n1cc(-c2ccc3c(C(=O)NCC(F)(F)F)cccc3c2)c2c(N)ncnc21 [cmpd 7, 6-(4-Amino-7-isopropyl-7H-pyrrolo[2,3-d]pyrimidin-5-yl)-naphthalene-1-carboxylic acid (2,2,2-trifluoro-ethyl)-amide]",0.046 µM,2.81 µM,0.048 µM,–,–,–

# More lines, in order of falling IC50 [1, 4], values ahead:
"IC50 [1, 4]","IC50 [2, 5]","IC50 [3, 6]",SMILES,"IC50 [1, 7]","IC50 [2, 8]","IC50 ([3]; 144 h, read-out: TT IC50 (μM))"
0.04 µM,2.34 µM,0.03 µM,"Nc1ncnc2c1c(-c1ccc3c(C(=O)NC4CC4)cccc3c1)cn2C1CCC(F)(F)CC1 [cmpd 30, 6-[4-Amino-7-(4,4-difluoro-cyclohexyl)-7H-pyrrolo[2,3-d]pyrimidin-5-yl]-naphthalene-1-carboxylic acid cyclopropylamide]",–,–,–
0.034 µM,0.961 µM,0.028 µM,"CC(C)n1cc(-c2ccc3c(C(=O)NC4CCC4)cccc3c2)c2c(N)ncnc21 [cmpd 11, 6-(4-Amino-7-isopropyl-7H-pyrrolo[2,3-d]pyrimidin-5-yl)-naphthalene-1-carboxylic acid cyclobutylamide]",–,–,–
0.011 µM,0.814 µM,0.009 µM,"Nc1ncnc2c1c(-c1ccc3c(C(=O)NC4CC4)cccc3c1)cn2C1CCOCC1 [cmpd 8, 6-[4-Amino-7-(tetrahydro-pyran-4-yl)-7H-pyrrolo[2,3-d]pyrimidin-5-yl]-naphthalene-1-carboxylic acid cyclopropylamide]",–,–,–
0.006 µM,0.463 µM,0.007 µM,"Nc1ncnc2c1c(-c1ccc3c(C(=O)NC4CC4)cccc3c1)cn2CC1CC1 [cmpd 13, 6-(4-Amino-7-cyclopropylmethyl-7H-pyrrolo[2,3-d]pyrimidin-5-yl)-naphthalene-1-carboxylic acid cyclopropylamide]",–,–,–
0.003 µM,0.867 µM,0.001 µM,"CC(C)n1cc(-c2ccc3c(C(=O)NC4CC4)cccc3c2)c2c(N)ncnc21 [cmpd 1, 6-(4-Amino-7-isopropyl-7H-pyrrolo[2,3-d]pyrimidin-5-yl)-naphthalene-1-carboxylic acid cyclopropylamide]",–,–,–
